In publication PMC5843811, “^44Sc for labeling of DOTA- and NODAGA-functionalized peptides: preclinical in vitro and in vivo investigations” (EJNMMI Radiopharmacy and Chemistry, 2016):
Where two headings read alike, the source gives them in different places. Each block holds one compound with its values, some of them ahead of it.

Experiments:
AR42J tumor-bearing mice [1] = conditions: female, CD-1 nude (athymic nude), mouse, in vivo, iv, 5 MBq per mouse
Description: (§1) Female athymic nude mice (CD-1 nude), age 5–6 weeks, were obtained from Charles River Laboratories, Sulzfeld, Germany. U87MG cells and AR42J-cells were suspended in PBS (5 × 10^6 cells in 100 μL) and subcutaneously inoculated on each shoulder. Two to three weeks later, when the tumor reached a size of about 300–500 mm^3, the mice were used for the in vivo studies.
(§2) Biodistribution studies were performed with U87MG tumor and AR42J tumor-bearing mice 2 weeks after tumor cell inoculation. ^44Sc- and ^68Ga-labeled peptides (~5 MBq, ~1 nmol per mouse) were intravenously injected in a volume of 100–200 μL. Mice were sacrificed at 30 min, 2 h and 5 h after injection (p.i.) of the ^44Sc-labeled peptides. Mice which were injected with ^68Ga-labeled peptides were sacrificed at 30 min and 2 h p.i. Selected tissues and organs were collected, weighed, and counted for radioactivity using a γ-counter (Wallac Wizard 1480, Perkin Elmer). The results were listed as a percentage of the injected activity per gram of tissue mass (% IA/g), using counts of a defined volume of the original injection solution counted at the same time. The data were analyzed for significance using a two-way ANOVA test (Graph Pad Prism 6 software, version 6.05). A p-value of < 0.05 was considered statistically significant.

in vivo = conditions: female, CD-1 nude (athymic nude), mouse, iv, 5 MBq per mouse, total radioactivity, Biodistribution
Description: as §1, §2

[2] = Metal challenge stability in saline with 10 mM Cu^2+ (TLC); assay type: physicochemical; conditions: 0.9 % NaCl with 10 mM Cu^2+, 37 °C, after two half-lives, 80–100 MBq in 800 μL
Description: Aliquots were taken from the prepared solutions at different time points over at least four half-lives, respectively, of ^44Sc and ^68Ga and analyzed by TLC (TLC was used, as the high metal concentrations used in this study may impair the long-term performance of HPLC columns). […] The TLC plates (Silica-gel 60, Merck) were developed using 0.1 M sodium citrate (pH 4.7) as mobile phase. The quantitative distribution of radioactivity was determined with an autoradiography system (Cyclone Plus, Perkin Elmer) and its associated software (Optiquant, version 5.0).
The influence of high metal cation concentration on the stability of ^44Sc and ^68Ga labeled peptides was monitored in solutions containing 0.01 M Fe^3+ or Cu^2+. An aqueous metal cation solution (16 μL of a 0.5 M Fe^3+/Cu^2+ solution) was added to 80–100 MBq of ^44Sc or ^68Ga labeling solution and diluted with 0.9 % NaCl solution to a volume of 800 μL. The incubation conditions, time points of retrieving samples and analysis by TLC were kept the same, as described above.

AR42J tumor-bearing mice [3] = assay: PET/CT imaging of AR42J tumor-bearing mice; conditions: 3 h after i.v. injection of ~10 MBq (~1 nmol; ^44Sc-NODAGA-NOC ~3 nmol), one or two mice
Description: A bench-top preclinical PET scanner (G8, Sofie Biosciences, California, U.S.A. and Perkin Elmer, Massachusetts, U.S.A.) was employed for the PET scans of the tumor-bearing mice. The energy window was set to 150–650 keV. Mice were injected intravenously with ^44Sc- or ^68Ga-labeled peptides (~10 MBq, ~1 nmol per mouse) in a volume of 100–200 μL. The PET scans were performed 3 h and 5 h after injection of the ^44Sc-labeled peptides and 3 h after injection of the ^68Ga-labeled peptides, using G8 acquisition software (version 2.0.0.10). All static PET scans lasted for 20 min. During the acquisition the mice were anesthetized by inhalation of a mixture of isoflurane and oxygen. The images were reconstructed with maximum-likelihood expectation maximization (MLEM). Gauss post-reconstruction filtering was performed using VivoQuant post-processing software (version 2.10, inviCRO Imaging Services and Software, Boston, U.S.A.).

[4] = Biodistribution in AR42J tumor-bearing mice; conditions: female, CD-1 nude (athymic nude), mouse, AR42J tumor / liver, iv, total radioactivity, Tumor-to-liver ratio, i.v. ~5 MBq (~1 nmol), 2 h p.i., mean ± SD, n=3
Description: as §1, §2

[5] = Biodistribution in U87MG tumor-bearing mice; assay type: in vivo; conditions: female, CD-1 nude (athymic nude), mouse, U87MG tumor, iv, total radioactivity, i.v. ~5 MBq (~1 nmol), 2 h p.i., mean ± SD, n=3, read-out: Biodistribution, U87MG Tumor
Description: as §1, §2

SMILES: N=C(N)NCCC[C@@H]1NC(=O)[C@H](CCCCNC(=O)CN2CCN(CC(=O)O)CCN(CC(=O)O)CCN(CC(=O)O)CC2)NC(=O)[C@@H](Cc2ccccc2)NC(=O)[C@H](CC(=O)O)NC(=O)CNC1=O [^68Ga-DOTA-RGD, metal not drawn]
Amount of intact compound in presence of 10 mM Cu^2+ [2]: 10%

SMILES: C[C@@H](O)[C@@H]1NC(=O)[C@H](CCCCN)NC(=O)[C@@H](Cc2c[nH]c3ccccc23)NC(=O)[C@H](Cc2cccc3ccccc23)NC(=O)[C@@H](NC(=O)[C@@H](Cc2ccccc2)NC(=O)CCC(C(=O)O)N2CCN(CC(=O)O)CCN(CC(=O)O)CC2)CSSC[C@@H](C(=O)N[C@H](CO)[C@@H](C)O)NC1=O (stereo partly shown) [^68Ga-NODAGA-NOC, metal not drawn]
PET/CT distribution of radioactivity (in words) (AR42J tumor-bearing mice [3]): accumulated solely in tumors and kidneys
tissue to tissue ratio at 2 h [4]: 5.88 ± 0.68

SMILES: N=C(N)NCCC[C@@H]1NC(=O)[C@H](CCCCNC(=O)CCC(C(=O)O)N2CCN(CC(=O)O)CCN(CC(=O)O)CC2)NC(=O)[C@@H](Cc2ccc(O)cc2)NC(=O)[C@H](CC(=O)O)NC(=O)CNC1=O (stereo partly shown) [^68Ga-NODAGA-RGD, metal not drawn]
tissue uptake at 2 h [5]: 3.13 ± 0.27 %ID/g

The next lines start with the values.

Biodistribution, Pancreas (AR42J tumor-bearing mice [1]; 2 h): 0.71 ± 0.01 % IA/g
Biodistribution, Stomach (AR42J tumor-bearing mice [1]; 2 h): 0.71 ± 0.05 % IA/g
tissue uptake at 0.5 h (in vivo; Intestines): 1.02 ± 0.37 %ID/g
tissue uptake at 0.5 h (in vivo; Pancreas): 1.29 ± 0.28 %ID/g
tissue uptake at 5 h (in vivo; Pancreas): 0.57 ± 0.07 %ID/g
tissue uptake at 0.5 h (in vivo; Stomach): 1.38 ± 0.29 %ID/g
tissue uptake at 5 h (in vivo; Stomach): 0.52 ± 0.09 %ID/g
SMILES: C[C@@H](O)[C@@H]1NC(=O)[C@H](CCCCN)NC(=O)[C@@H](Cc2c[nH]c3ccccc23)NC(=O)[C@H](Cc2cccc3ccccc23)NC(=O)[C@@H](NC(=O)[C@@H](Cc2ccccc2)NC(=O)CN2CCN(CC(=O)O)CCN(CC(=O)O)CCN(CC(=O)O)CC2)CSSC[C@@H](C(=O)N[C@H](CO)[C@@H](C)O)NC1=O [^44Sc-DOTA-NOC, metal not drawn]

Biodistribution, Intestines (AR42J tumor-bearing mice [1]; 0.5 h): 0.99 ± 0.13 % IA/g
Biodistribution, Pancreas (AR42J tumor-bearing mice [1]; 0.5 h): 2.48 ± 0.11 % IA/g
Biodistribution, Stomach (AR42J tumor-bearing mice [1]; 0.5 h): 2.27 ± 0.21 % IA/g
Biodistribution, Pancreas (AR42J tumor-bearing mice [1]; 2 h): 1.70 ± 0.22 % IA/g
Biodistribution, Stomach (AR42J tumor-bearing mice [1]; 2 h): 1.68 ± 0.27 % IA/g
SMILES: C[C@@H](O)[C@@H]1NC(=O)[C@H](CCCCN)NC(=O)[C@@H](Cc2c[nH]c3ccccc23)NC(=O)[C@H](Cc2cccc3ccccc23)NC(=O)[C@@H](NC(=O)[C@@H](Cc2ccccc2)NC(=O)CN2CCN(CC(=O)O)CCN(CC(=O)O)CCN(CC(=O)O)CC2)CSSC[C@@H](C(=O)N[C@H](CO)[C@@H](C)O)NC1=O [^68Ga-DOTA-NOC, metal not drawn]
